Where two headings read alike, the source gives them in different places.
Tests used:
[1] = tested on: Aedes aegypti; assay: In vitro ingestion activity against adult mosquitoes (artificial feeding, bovine blood); conditions: read-out: Mortality % R1 + R2
Method: (§1) Aedes aegypti (Louisiana Biologicals Inc., New Orleans, La.) eggs were allowed to hatch, close, and age between 3-5 days in an environmental chamber at 26° C., 80% humidity with light/dark cycles.
For mosquito ingestion tests, serial dilutions of the compound stock were performed using DMSO to achieve the desired range for EC50 and EC90 determination. An aliquot of each compound dilution was added to organic bovine blood with a final DMSO concentration of 0.5% and placed in a temperature-controlled artificial feeding container.
Compounds tested were: the C1 racemate, C1 (R) enantiomer, and the C1 (S) enantiomer. For Trial 3, the C1 (R) enantiomer and the C1 (S) enantiomer were further chiral purified to achieve >99% purity.
(§2) For both contact and ingestion assays, five female Aedes aegypti adults were added to each vial or cage. The test vials for contact assays were held in an environmental chamber at 24° C., 80% humidity with light/dark cycles (12 hours each). The cages for mosquito ingestion assays were held in a temperature-controlled artificial feeding apparatus to allow continual access to organic bovine blood containing the desired concentration of compound. Fresh aliquots of compound-spiked bovine blood were provided daily for the duration of the study.
Assessment of mortality/knockdown was performed at various time points between 30 minutes and 24 hours post infestation. Mosquitoes showing no movement or mosquitoes that were knocked down were noted as dead. Results from trial 1 and trial 2 contact assays are shown in Tables 12 and 13, respectively and the results from trial 3 mosquito ingestion assay is shown in table 14.
(§3) For the mosquito contact and ingestion assays, each replicate contained 5 mosquitoes. For ease of calculation, the two replicates were added to equal a total of 10 mosquitoes.

[2] = tested on: Aedes aegypti; assay: In vitro contact activity against adult mosquitoes (coated vial)
Method: as §1
For mosquito assays, an aliquot from each compound stock was added to an acetone/triton solution to achieve the desired top doses for the study. Serial dilutions were conducted from the top dose (i.e. 50 ppm) to achieve the desired titration range for EC50 and EC90 determination. The final DMSO concentration in each test vial was 0.5%. A 459 μL aliquot of each compound formulation was transferred to a vial and vials were immediately placed on an unheated roller unit to allow for an even coating of the vial walls. The vials were loosely capped and allowed to dry for a minimum of four hours in a chemical fume hood.
as §2
Mosquitoes showing no movement or mosquitoes that were knocked down were noted as dead. Results from trial 1 and trial 2 contact assays are shown in Tables 12 and 13, respectively and the results from trial 3 mosquito ingestion assay is shown in table 14.
as §3

O=C(CC(F)(F)F)N1CC2(C1)OCc1cc(C3=NS[C@@](c4cc(Cl)c(F)c(Cl)c4)(C(F)(F)F)C3)ccc12 [C1 (S) enantiomer, (S)-1-[6-[5-(3,5-dichloro-4-fluoro-phenyl)-5-(trifluoromethyl)-4H-isothiazol-3-yl]spiro[1H-isobenzofuran-3,3′-azetidine]-1′-yl]-3,3,3-trifluoro-propan-1-one]
0%: mortality at 0.049 ppm [1] | mortality at 0.049 µM ([2]; 0.5 h, read-out: % Mortality R1 + R2, Trial 1, contact assay, dose 0.049 μM, 0.5 Hr) | mortality at 0.2 µM ([2]; 0.5 h, read-out: % Mortality R1 + R2, Trial 1, contact assay, dose 0.20 μM, 0.5 Hr) | mortality at 0.78 µM ([2]; 0.5 h, read-out: % Mortality R1 + R2, Trial 1, contact assay, dose 0.78 μM, 0.5 Hr) | mortality at 3.125 µM ([2]; 0.5 h, read-out: % Mortality R1 + R2, Trial 1, contact assay, dose 3.125 μM, 0.5 Hr) | mortality at 12.5 µM ([2]; 0.5 h, read-out: % Mortality R1 + R2, Trial 1, contact assay, dose 12.5 μM, 0.5 Hr) | mortality at 50 µM ([2]; 0.5 h, read-out: % Mortality R1 + R2, Trial 1, contact assay, dose 50 μM, 0.5 Hr) | mortality at 0.049 µM ([2]; 0.5 h, read-out: % Mortality R1 + R2, Trial 2, contact assay, dose 0.049 μM, 0.5 Hr) | mortality at 0.2 µM ([2]; 0.5 h, read-out: % Mortality R1 + R2, Trial 2, contact assay, dose 0.20 μM, 0.5 Hr) | mortality at 0.78 µM ([2]; 0.5 h, read-out: % Mortality R1 + R2, Trial 2, contact assay, dose 0.78 μM, 0.5 Hr) | mortality at 3.125 µM ([2]; 0.5 h, read-out: % Mortality R1 + R2, Trial 2, contact assay, dose 3.125 μM, 0.5 Hr) | mortality at 12.5 µM ([2]; 0.5 h, read-out: % Mortality R1 + R2, Trial 2, contact assay, dose 12.5 μM, 0.5 Hr) | mortality at 50 µM ([2]; 0.5 h, read-out: % Mortality R1 + R2, Trial 2, contact assay, dose 50 μM, 0.5 Hr) | mortality at 0.049 µM ([2]; 1 h, read-out: % Mortality R1 + R2, Trial 1, contact assay, dose 0.049 μM, 1 hr) | mortality at 0.2 µM ([2]; 1 h, read-out: % Mortality R1 + R2, Trial 1, contact assay, dose 0.20 μM, 1 hr) | mortality at 0.78 µM ([2]; 1 h, read-out: % Mortality R1 + R2, Trial 1, contact assay, dose 0.78 μM, 1 hr) | mortality at 3.125 µM ([2]; 1 h, read-out: % Mortality R1 + R2, Trial 1, contact assay, dose 3.125 μM, 1 hr) | mortality at 12.5 µM ([2]; 1 h, read-out: % Mortality R1 + R2, Trial 1, contact assay, dose 12.5 μM, 1 hr) | mortality at 50 µM ([2]; 1 h, read-out: % Mortality R1 + R2, Trial 1, contact assay, dose 50 μM, 1 hr) | mortality at 0.049 µM ([2]; 1 h, read-out: % Mortality R1 + R2, Trial 2, contact assay, dose 0.049 μM, 1 hr) | mortality at 0.2 µM ([2]; 1 h, read-out: % Mortality R1 + R2, Trial 2, contact assay, dose 0.20 μM, 1 hr) | mortality at 0.78 µM ([2]; 1 h, read-out: % Mortality R1 + R2, Trial 2, contact assay, dose 0.78 μM, 1 hr) | mortality at 3.125 µM ([2]; 1 h, read-out: % Mortality R1 + R2, Trial 2, contact assay, dose 3.125 μM, 1 hr) | mortality at 12.5 µM ([2]; 1 h, read-out: % Mortality R1 + R2, Trial 2, contact assay, dose 12.5 μM, 1 hr) | mortality at 50 µM ([2]; 1 h, read-out: % Mortality R1 + R2, Trial 2, contact assay, dose 50 μM, 1 hr) | mortality at 0.049 µM ([2]; 6 h, read-out: % Mortality R1 + R2, Trial 1, contact assay, dose 0.049 μM, 6 hr) | mortality at 0.2 µM ([2]; 6 h, read-out: % Mortality R1 + R2, Trial 1, contact assay, dose 0.20 μM, 6 hr) | mortality at 0.78 µM ([2]; 6 h, read-out: % Mortality R1 + R2, Trial 1, contact assay, dose 0.78 μM, 6 hr) | mortality at 3.125 µM ([2]; 6 h, read-out: % Mortality R1 + R2, Trial 1, contact assay, dose 3.125 μM, 6 hr) | mortality at 0.049 µM ([2]; 6 h, read-out: % Mortality R1 + R2, Trial 2, contact assay, dose 0.049 μM, 6 hr) | mortality at 0.2 µM ([2]; 6 h, read-out: % Mortality R1 + R2, Trial 2, contact assay, dose 0.20 μM, 6 hr) | mortality at 0.78 µM ([2]; 6 h, read-out: % Mortality R1 + R2, Trial 2, contact assay, dose 0.78 μM, 6 hr) | mortality at 3.125 µM ([2]; 6 h, read-out: % Mortality R1 + R2, Trial 2, contact assay, dose 3.125 μM, 6 hr) | mortality at 0.049 µM ([2]; 12 h, read-out: % Mortality R1 + R2, Trial 1, contact assay, dose 0.049 μM, 12 hr) | mortality at 0.2 µM ([2]; 12 h, read-out: % Mortality R1 + R2, Trial 1, contact assay, dose 0.20 μM, 12 hr) | mortality at 0.78 µM ([2]; 12 h, read-out: % Mortality R1 + R2, Trial 1, contact assay, dose 0.78 μM, 12 hr) | mortality at 0.049 µM ([2]; 12 h, read-out: % Mortality R1 + R2, Trial 2, contact assay, dose 0.049 μM, 12 hr) | mortality at 0.78 µM ([2]; 12 h, read-out: % Mortality R1 + R2, Trial 2, contact assay, dose 0.78 μM, 12 hr) | mortality at 0.049 µM ([2]; 24 h, read-out: % Mortality R1 + R2, Trial 1, contact assay, dose 0.049 μM, 24 hr) | mortality at 0.2 µM ([2]; 24 h, read-out: % Mortality R1 + R2, Trial 1, contact assay, dose 0.20 μM, 24 hr) | mortality at 0.78 µM ([2]; 24 h, read-out: % Mortality R1 + R2, Trial 1, contact assay, dose 0.78 μM, 24 hr) | mortality at 0.049 µM ([2]; 24 h, read-out: % Mortality R1 + R2, Trial 2, contact assay, dose 0.049 μM, 24 hr) | mortality at 0.78 µM ([2]; 24 h, read-out: % Mortality R1 + R2, Trial 2, contact assay, dose 0.78 μM, 24 hr) | mortality at 0.049 µM ([2]; 48 h, read-out: % Mortality R1 + R2, Trial 1, contact assay, dose 0.049 μM, 48 hr) | mortality at 0.049 µM ([2]; 48 h, read-out: % Mortality R1 + R2, Trial 2, contact assay, dose 0.049 μM, 48 hr)
100%: mortality at 0.2 ppm ([1]; 24 h) | mortality at 0.78 ppm ([1]; 24 h) | mortality at 3.125 ppm ([1]; 24 h) | mortality at 12.5 ppm ([1]; 24 h) | mortality at 50 ppm ([1]; 24 h) | mortality at 0.78 ppm [1] | mortality at 3.125 ppm [1] | mortality at 12.5 ppm [1] | mortality at 50 ppm [1] | mortality at 50 µM ([2]; 6 h, read-out: % Mortality R1 + R2, Trial 1, contact assay, dose 50 μM, 6 hr) | mortality at 50 µM ([2]; 6 h, read-out: % Mortality R1 + R2, Trial 2, contact assay, dose 50 μM, 6 hr) | mortality at 50 µM ([2]; 12 h, read-out: % Mortality R1 + R2, Trial 1, contact assay, dose 50 μM, 12 hr) | mortality at 12.5 µM ([2]; 12 h, read-out: % Mortality R1 + R2, Trial 2, contact assay, dose 12.5 μM, 12 hr) | mortality at 50 µM ([2]; 12 h, read-out: % Mortality R1 + R2, Trial 2, contact assay, dose 50 μM, 12 hr) | mortality at 12.5 µM ([2]; 24 h, read-out: % Mortality R1 + R2, Trial 1, contact assay, dose 12.5 μM, 24 hr) | mortality at 50 µM ([2]; 24 h, read-out: % Mortality R1 + R2, Trial 1, contact assay, dose 50 μM, 24 hr) | mortality at 3.125 µM ([2]; 24 h, read-out: % Mortality R1 + R2, Trial 2, contact assay, dose 3.125 μM, 24 hr) | mortality at 12.5 µM ([2]; 24 h, read-out: % Mortality R1 + R2, Trial 2, contact assay, dose 12.5 μM, 24 hr) | mortality at 50 µM ([2]; 24 h, read-out: % Mortality R1 + R2, Trial 2, contact assay, dose 50 μM, 24 hr) | mortality at 3.125 µM ([2]; 48 h, read-out: % Mortality R1 + R2, Trial 1, contact assay, dose 3.125 μM, 48 hr) | mortality at 12.5 µM ([2]; 48 h, read-out: % Mortality R1 + R2, Trial 1, contact assay, dose 12.5 μM, 48 hr) | mortality at 50 µM ([2]; 48 h, read-out: % Mortality R1 + R2, Trial 1, contact assay, dose 50 μM, 48 hr) | mortality at 0.78 µM ([2]; 48 h, read-out: % Mortality R1 + R2, Trial 2, contact assay, dose 0.78 μM, 48 hr) | mortality at 3.125 µM ([2]; 48 h, read-out: % Mortality R1 + R2, Trial 2, contact assay, dose 3.125 μM, 48 hr) | mortality at 12.5 µM ([2]; 48 h, read-out: % Mortality R1 + R2, Trial 2, contact assay, dose 12.5 μM, 48 hr) | mortality at 50 µM ([2]; 48 h, read-out: % Mortality R1 + R2, Trial 2, contact assay, dose 50 μM, 48 hr)
30%: mortality at 12.5 µM ([2]; 6 h, read-out: % Mortality R1 + R2, Trial 1, contact assay, dose 12.5 μM, 6 hr) | mortality at 0.2 µM ([2]; 24 h, read-out: % Mortality R1 + R2, Trial 2, contact assay, dose 0.20 μM, 24 hr)
20%: mortality at 3.125 µM ([2]; 12 h, read-out: % Mortality R1 + R2, Trial 2, contact assay, dose 3.125 μM, 12 hr)
10%: mortality at 12.5 µM ([2]; 6 h, read-out: % Mortality R1 + R2, Trial 2, contact assay, dose 12.5 μM, 6 hr) | mortality at 3.125 µM ([2]; 12 h, read-out: % Mortality R1 + R2, Trial 1, contact assay, dose 3.125 μM, 12 hr) | mortality at 0.2 µM ([2]; 12 h, read-out: % Mortality R1 + R2, Trial 2, contact assay, dose 0.20 μM, 12 hr) | mortality at 0.2 µM ([2]; 48 h, read-out: % Mortality R1 + R2, Trial 1, contact assay, dose 0.20 μM, 48 hr) | mortality at 0.78 µM ([2]; 48 h, read-out: % Mortality R1 + R2, Trial 1, contact assay, dose 0.78 μM, 48 hr)
70%: mortality at 0.049 ppm ([1]; 24 h) | mortality at 12.5 µM ([2]; 12 h, read-out: % Mortality R1 + R2, Trial 1, contact assay, dose 12.5 μM, 12 hr)
60%: mortality at 3.125 µM ([2]; 24 h, read-out: % Mortality R1 + R2, Trial 1, contact assay, dose 3.125 μM, 24 hr)
44.4%: mortality at 0.2 ppm [1]
90%: mortality at 0.2 µM ([2]; 48 h, read-out: % Mortality R1 + R2, Trial 2, contact assay, dose 0.20 μM, 48 hr)

— patent US10807992B2, “Single enantiomer antiparasitic compounds” (priority 2017, dated 2020)
